Laboratory results published in the NIST ThermoML archive (doi:10.1021/je900333c).
± gives the expanded uncertainty stated by the source.

Assay: relative permittivity at zero frequency (dimensionless); mn = molality of the nth substance listed, in mol/kg
Settings: 101 kPa, Liquid, dielectric constant meter

NCC(=O)O [2-aminoacetic acid] + O
relative permittivity at zero frequency
Settings | 278.15 K | 283.15 K | 288.15 K | 293.15 K | 298.15 K | 303.15 K | 308.15 K | 313.15 K
m1 = 0.1 | 88.4 ± 0.2 | 86.4 ± 0.2 | 84.5 ± 0.2 | 82.6 ± 0.2 | 80.7 ± 0.2 | 78.8 ± 0.2 | 76.9 ± 0.2 | 75 ± 0.2
m1 = 0.15 | 89.5 ± 0.2 | 87.5 ± 0.2 | 85.6 ± 0.2 | 83.6 ± 0.2 | 81.7 ± 0.2 | 79.7 ± 0.2 | 77.8 ± 0.2 | 75.8 ± 0.2
m1 = 0.2 | 90.6 ± 0.2 | 88.6 ± 0.2 | 86.6 ± 0.2 | 84.6 ± 0.2 | 82.6 ± 0.2 | 80.6 ± 0.2 | 78.5 ± 0.2 | 76.4 ± 0.2
m1 = 0.25 | 91.6 ± 0.2 | 89.6 ± 0.2 | 87.6 ± 0.2 | 85.6 ± 0.2 | 83.5 ± 0.2 | 81.4 ± 0.2 | 79.2 ± 0.2 | 77 ± 0.2
m1 = 0.3 | 92.8 ± 0.2 | 90.7 ± 0.2 | 88.7 ± 0.2 | 86.5 ± 0.2 | 84.3 ± 0.2 | 82.1 ± 0.2 | 79.7 ± 0.2 | 77.2 ± 0.2
